According to patent US7932277B2, “Peptide inhibitors of hepatitis C virus replication” (InterMune, Inc., priority 2007, dated 2011):

What was measured:
[1] = target: T1, NS3/NS4A-2 (full-length HCV NS3 protease complexed with NS4A-2) (Hepatitis C virus genotype 1a, UniProt P27958); assay: NS3 inhibition assay (NS3-NS4 protease assay); format: biochemical; conditions: recombinant full-length NS3/NS4A-2, RETS1 substrate, kinetic fluorescence read; read-out: NS3-NS4 IC50
T1 construct: Recombinant E. coli or Baculovirus full-length NS3; host or cells: E. coli or baculovirus (insect cells)
Protocol: Recombinant E. coli or Baculovirus full-length NS3 was diluted to 3.33 μM with assay buffer and transferred material to an eppendorf tube and place in water bath in 4° C. refrigerator. The appropriate amount of NS4A-2 to 8.3 mM in assay buffer was added to equal the volume of NS3 in step 2.1.1 (conversion factor −3.8 mg/272 μL assay buffer). The material was transferred to an eppendorf tube and place in water bath in 4° C. refrigerator.
After equilibration to 4° C., equal volumes of NS3 and NS4A-2 solutions were combined in an eppendorf tube, mix gently with a manual pipettor, and incubate mixture for 15 minutes in the 4° C. water bath. Final concentrations in the mixture are 1.67 μM NS3, 4.15 mM NS4A-2 (2485-fold molar excess NS4A-2).
After 15 minutes at 4° C., the NS3/NS4A-2 eppendorf tube was removed and place it in a room temperature water bath for 10 minutes. NS3/NS4A-2 was aliquoted at appropriate volumes and store at −80° C. (E. coli NS3 run at 2 nM in assay, aliquot at 25 μL. BV NS3 run at 3 nM in assay, aliquot at 30 μL).
Sample compounds were dissolved to 10 mM in DMSO then diluted to 2.5 mM (1:4) in DMSO. Typically, compounds were added to an assay plate at 2.5 mM concentration, yielding upon dilution a starting concentration of 50 microM in the assay inhibition curve. Compounds were serial diluted in assay buffer to provide test solutions at lower concentrations.
The E. coli. NS3/NS4A-2 was diluted to 4 nM NS3 (1:417.5 of 1.67 μM stock−18 μL1.67 μM stock+7497 μL assay buffer). The BV NS3/NS4A-2 was diluted to 6 nM NS3 (1:278.3 of 1.67 μM stock−24 μL1.67 μM stock+6655 μL assay buffer). Using the manual multichannel pipettor, careful not to introduce bubbles into the plate, add 50 μL assay buffer to wells A01-H01 of a black Costar 96-well polypropylene storage plate.
Using the manual multichannel pipettor, careful not to introduce bubbles into the plate, add 50 μL of diluted NS3/NS4A-2 from step 2.2.6 to wells A02-H12 of plate in step 2.2.7. Using the manual multichannel pipettor, careful not to introduce bubbles into the plate, transfer 25 μL of the wells in drug dilution plate in step 2.2.5 to corresponding wells in assay plate in step 2.2.8. Change tips on multichannel pipettor for each row of compounds transferred. Using the manual multichannel pipettor, careful not to introduce bubbles into the plate, mix the wells from the assay plate in step 2.2.9 by aspirating and dispensing 35 μL of the 75 μL in each well five times. Change tips on multichannel pipettor for each row of wells mixed. Cover plate with a polystyrene plate lid and pre-incubate the plate from step 2.2.10 containing NS3 protease and sample compounds 10 minutes at room temperature. While plate from step 2.2.11 is pre-incubating, dilute RETS1 substrate in a 15 mL polypropylene centrifuge tube. Dilute RETS1 substrate to 8 μM (1:80.75 of 646 μM stock−65 μL 646 μM stock+5184 μL assay buffer).
After the plate in step is done pre-incubating, and using the manual multichannel, add 25 μL of substrate to all wells on the plate. Quickly mix the plate as in step 2.2.10, mixing 65 μL of the 100 μL in the wells.
Read the plate in kinetic mode on the Molecular Devices SpectraMax Gemini XS plate reader. Reader settings: Read time: 30 minutes, Interval: 36 seconds, Reads: 51, Excitation λ: 335 nm, Emission λ: 495 nm, cutoff: 475 nm, Automix: off, Calibrate: once, PMT: high, Reads/well: 6, Vmax pts: 21 or 28/51 depending on length of linearity of reaction
IC50s are determined using a four parameter curve fit equation, and converted to Ki's using the following Km's: • Full-length E. coli NS3−2.03 μM • Full-length BV NS3−1.74 μM • where Ki=IC50/(1+[S]/Km)) • Quantitation by ELISA of the Selectable Marker Protein, Neomycin Phosphotransferase II (NPTII) in the HCV Sub-Genomic Replicon, GS4.3

[2] = tested on: HCV sub-genomic replicon (1377/NS3-3') in HuH-7 hepatoma cells (GS4.3); assay: Quantitation by ELISA of NPTII in the HCV sub-genomic replicon, GS4.3; format: cell-based, hepatitis C virus (HCV); conditions: Hepatitis C virus, Huh-7; GS4.3 cells, 72 h incubation, NPTII ELISA; read-out: Replicon EC50
Protocol: The HCV sub-genomic replicon (1377/NS3-3′, accession No. AJ242652), stably maintained in HuH-7 hepatoma cells, was created by Lohmann et al. Science 285: 110-113 (1999). The replicon-containing cell culture, designated GS4.3, was obtained from Dr. Christoph Seeger of the Institute for Cancer Research, Fox Chase Cancer Center, Philadelphia, Pa.
GS4.3 cells were maintained at 37° C., 5% CO2, in DMEM (Gibco 11965-092) supplemented with L-glutamine 200 mM (100×) (Gibco25030-081), non-essential amino acids (NEAA) (Biowhittaker 13-114E), heat-inactivated (HI) Fetal Bovine Serum (FBS) (Hyclone SH3007.03) and 750 μg/mL geneticin (G418)(Gibco 10131-035). Cells were sub-divided 1:3 or 4 every 2-3 days.
24 h prior to the assay, GS4.3 cells were collected, counted, and plated in 96-well plates (Costar 3585) at 7500 cells/well in 100 μL standard maintenance medium (above) and incubated in the conditions above. To initiate the assay, culture medium was removed, cells were washed once with PBS (Gibco 10010-023) and 90 μl Assay Medium (DMEM, L-glutamine, NEAA, 10% HI FBS, no G418) was added. Inhibitors were made as a 10× stock in Assay Medium, (3-fold dilutions from 10 μM to 56 pM final concentration, final DMSO concentration 1%), 10 μL were added to duplicate wells, plates were rocked to mix, and incubated as above for 72 h.
An NPTII Elisa kit was obtained from AGDIA, Inc. (Compound direct ELISA test system for Neomycin Phosphotransferase II, PSP 73000/4800). Manufacturer's instructions were followed, with some modifications. 10×PEB-1 lysis buffer was made up to include 500 μM PMSF (Sigma P7626, 50 mM stock in isopropanol). After 72 h incubation, cells were washed once with PBS and 150 μL PEB-1 with PMSF was added per well. Plates were agitated vigorously for 15 minutes, room temperature, then frozen at −70° C. Plates were thawed, lysates were mixed thoroughly, and 100 μl were applied to an NPTII Elisa plate. A standard curve was made. Lysate from DMSO-treated control cells was pooled, serially diluted with PEB-1 with PMSF, and applied to duplicate wells of the ELISA plate, in a range of initial lysate amount of 150 μL-2.5 μL. In addition, 100 μL buffer alone was applied in duplicate as a blank. Plates were sealed and gently agitated at room temperature for 2 h. Following capture incubation, the plates were washed 5×300 μL with PBS-T (0.5% Tween-20, PBS-T was supplied in the ELISA kit). For detection, a 1× dilution of enzyme conjugate diluent MRS-2 (5×) was made in PBS-T, into which 1:100 dilutions of enzyme conjugates A and B were added, as per instructions. Plates were resealed, and incubated with agitation, covered, room temperature, for 2 h. The washing was then repeated and 100 μL of room temperature TMB substrate was added. After approximately 30 minutes incubation (room temperature, agitation, covered), the reaction was stopped with 50 μL 3M sulfuric acid. Plates were read at 450 nm on a Molecular Devices Versamax plate reader.
Inhibitor effect was expressed as a percentage of DMSO-treated control signal, and inhibition curves were calculated using a 4-parameter equation: y=A+((B−A)/(1+((C/x)^D))), where C is half-maximal activity or EC50.

T1 sequence (P27958 1027-1657, one chain of several): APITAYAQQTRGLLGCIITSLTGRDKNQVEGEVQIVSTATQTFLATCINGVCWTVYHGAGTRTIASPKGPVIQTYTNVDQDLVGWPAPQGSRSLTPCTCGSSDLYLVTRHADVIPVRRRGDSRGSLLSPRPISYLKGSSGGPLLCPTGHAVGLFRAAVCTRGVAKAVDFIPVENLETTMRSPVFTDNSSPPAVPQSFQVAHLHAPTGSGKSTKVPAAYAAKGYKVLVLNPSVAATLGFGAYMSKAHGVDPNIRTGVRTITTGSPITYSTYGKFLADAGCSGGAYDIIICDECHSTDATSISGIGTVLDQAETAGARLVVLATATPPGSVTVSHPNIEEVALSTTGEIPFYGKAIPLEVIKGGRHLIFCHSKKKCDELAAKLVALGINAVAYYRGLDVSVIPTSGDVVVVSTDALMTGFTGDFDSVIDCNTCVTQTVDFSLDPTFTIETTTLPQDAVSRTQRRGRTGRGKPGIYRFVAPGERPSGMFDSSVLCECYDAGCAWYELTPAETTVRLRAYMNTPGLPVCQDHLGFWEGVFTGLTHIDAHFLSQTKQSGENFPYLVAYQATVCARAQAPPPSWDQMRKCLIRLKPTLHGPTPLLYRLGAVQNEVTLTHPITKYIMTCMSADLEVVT

Molecule | IC50 [1] | EC50 [2]
C=C[C@@H]1C[C@]1(NC(=O)C1Cc2cc(Oc3cccc(Cl)c3)ccc2CN1C(=O)[C@@H](Nc1ccc(F)cc1)C(C)(C)C)C(=O)NS(=O)(=O)C1CC1 (stereo partly drawn) [Compound 10, 6-(3-chlorophenoxy)-N-((1R,2S)-1-(cyclopropylsulfonylcarbamoyl)-2-vinylcyclopropyl)-2-((S)-2-(4-fluorophenylamino)-3,3-dimethylbutanoyl)-1,2,3,4-tetrahydroisoquinoline-3-carboxamide] | < 0.1 µM | 1 to 10 µM
C=C[C@@H]1C[C@]1(NC(=O)[C@@H]1Cc2cc(Oc3cccc(Cl)c3)ccc2CN1C(=O)[C@@H](Nc1ccc(F)cc1)C(C)(C)C)C(=O)NS(=O)(=O)C1CC1 [Compound 11, (S)-6-(3-chlorophenoxy)-N-((1R,2S)-1-(cyclopropylsulfonylcarbamoyl)-2-vinylcyclopropyl)-2-((S)-2-(4-fluorophenylamino)-3,3-dimethylbutanoyl)-1,2,3,4-tetrahydroisoquinoline-3-carboxamide] | < 0.1 µM | 10 to 50 µM
C=C[C@@H]1C[C@]1(NC(=O)[C@H]1Cc2cc(Oc3cccc(Cl)c3)ccc2CN1C(=O)[C@@H](Nc1ccc(F)cc1)C(C)(C)C)C(=O)NS(=O)(=O)C1CC1 [Compound 12, (R)-6-(3-chlorophenoxy)-N-((1R,2S)-1-(cyclopropylsulfonylcarbamoyl)-2-vinylcyclopropyl)-2-((S)-2-(4-fluorophenylamino)-3,3-dimethylbutanoyl)-1,2,3,4-tetrahydroisoquinoline-3-carboxamide] | 0.1 to 1 µM | 10 to 50 µM
C=C[C@@H]1C[C@]1(NC(=O)C1Cc2cc(Oc3cccc(Cl)c3)ccc2CN1C(=O)[C@@H](Nc1cccc(C(C)(C)C)c1)C(C)C)C(=O)NS(=O)(=O)C1CC1 (stereo partly drawn) [Compound 13, 2-((S)-2-(3-tert-butylphenylamino)-3-methylbutanoyl)-6-(3-chlorophenoxy)-N-((1R,2S)-1-(cyclopropylsulfonylcarbamoyl)-2-vinylcyclopropyl)-1,2,3,4-tetrahydroisoquinoline-3-carboxamide] | < 0.1 µM | 10 to 50 µM
C=C[C@@H]1C[C@]1(NC(=O)[C@@H]1C[C@@H](OC(=O)N2Cc3cccc(F)c3C2)CN1C(=O)[C@@H](Nc1ccc(F)cc1)C(C)C)C(=O)NS(=O)(=O)C1CC1 [Compound 33, (3R,5S)-5-((1R,2S)-1-(cyclopropylsulfonylcarbamoyl)-2-vinylcyclopropylcarbamoyl)-1-((S)-2-(4-fluorophenylamino)-3-methylbutanoyl)pyrrolidin-3-yl 4-fluoroisoindoline-2-carboxylate] | < 0.1 µM | 0.1 to 1 µM
CC[C@@H]1C[C@]1(NC(=O)[C@@H]1C[C@@H](OC(=O)N2Cc3cccc(Cl)c3C2)CN1C(=O)[C@@H](Nc1cc(F)cc(C(F)(F)F)c1)C(C)(C)C)C(=O)NS(=O)(=O)C1CC1 [Compound 73, (3R,5S)-5-((1R,2R)-1-(cyclopropylsulfonylcarbamoyl)-2-ethylcyclopropylcarbamoyl)-1-((S)-2-(3-fluoro-5-(trifluoromethyl)phenylamino)-3,3-dimethylbutanoyl)pyrrolidin-3-yl 4-chloroisoindoline-2-carboxylate] | < 0.1 µM | –
CC[C@@H]1C[C@]1(NC(=O)[C@@H]1C[C@@H](OC(=O)N2Cc3cccc(Cl)c3C2)CN1C(=O)[C@@H](Nc1cc(F)cc(C(F)(F)F)c1)C(C)(C)C)C(=O)NS(=O)(=O)C1CC1 [Compound 77] | – | < 0.1 µM
[(3R,5S)-5-(((1R,2R)-1-(Cyclopropylsulfonylcarbamoyl)-2-ethylcyclopropyl)carbamoyl)-1-((S)-2-(5-isopropylthiazol-2-ylamino)-3,3-dimethylbutanoyl)pyrrolidin-3-yl]4-chloroisoindoline-2-carboxylate [Compound 65] | < 0.1 µM | –
